In publication PMC10222454, “Characterization of the Molecular Diversity and Degranulation Activity of Mastoparan Family Peptides from Wasp Venoms” (Toxins, 2023):
Read-outs that look alike come from different tables or passages of the source. Ends that are not written are not given here.

Key:
[1] = system: RBL-2H3 cells; format: cell-based, rat; settings: for Degranulation at 80 μg/mL, RBL-2H3: 80 μg/mL peptide, 15 min at 37 °C, % of total β-hexosaminidase (0.1% Triton X-100 lysis)
Protocol: (§1) RBL-2H3 cells (rat mucosal-type mast cell line) and P815 cells (mouse mast cell tumor cell line) were obtained from the BeNa Culture Collection (Xinyang, China). RBL-2H3 cells were cultured in DMEM (Gibco, Wuhan, China) supplemented with 15% FBS (Gibco), and P815 cells were maintained in RPMI 1640 basic medium supplemented with 10% FBS and antibiotics (100 mg/L streptomycin and 1 × 10^5 U/L penicillin) in a humidified atmosphere (5% CO2, 37 °C).
(§2) Degranulation was analyzed by measuring the release of the granule marker N-acetyl-D-glucosaminidase (β-hexosaminidase), which colocalizes with histamine, as described in [24]. For this, 2 × 10^5 P815 cells/mL or 1.5 × 10^5 RBL-2H3 cells/mL were seeded in 96-well cell culture plates. Twelve hours later, the cells were incubated with various concentrations of mastoparans dissolved in 100 μL HEPES buffer (137 mM NaCl, 2.7 mM KCl, 1 mM MgCl2, 1.8 mM CaCl2, 20 mM HEPES, 1 mg/mL BSA, and 1 mg/mL glucose, pH 7.4) for 15 min at 37 °C and 5% CO2. Then, the reactions were quenched by the addition of 0.15 mL of ice-cold HEPES buffer. After centrifugation, the supernatants were sampled for the β-hexosaminidase assay. Briefly, 50 μL samples of the cell culture supernatants and 50 μL of the substrate, 5 mM p-nitrophenyl-N-acetyl-b-D-glucosaminide (Sigma) in 0.2 M citrate, pH 4.5, were incubated in 96-well plates at 37 °C and 5% CO2 for 16–18 h to yield the chromophore p-nitrophenol, and the reactions were stopped by the addition of 100 μL of 0.2 M glycine solution, pH 10.7. The absorbance of the colored product was assessed at 405 nm using a microtiter plate reader. The values for β-hexosaminidase released in the medium are expressed as the percentage of total β-hexosaminidase, which was measured in the cells after lysis in 0.1% Triton X-100. The experiment was repeated three times, and the results represent the mean and standard deviation (SD) of quadruplicate tests. The percent degranulation was calculated according to the following equation:Degranulation Rate (%) = 100% × (Amastoparans − AHEPES)/(ATriton X-100 − AHEPES).
Statistical analysis was performed with GraphPad Prism software. The curve of mast cell degranulation induced by wasp mastoparans was generated in SigmaPlot 12.5 software, and the EC50 was calculated according to the following equation (Four-Parameter Logistic Curve): y = min + (max − min)/(1 + (x/EC50) […] Hillslope).

[2] = system: P815 cells; experiment: Mast cell degranulation activity (β-hexosaminidase release) in P815 cells; format: cell-based, mouse; settings: P815 cells, 80 μg/mL peptide, 15 min at 37 °C, % of total β-hexosaminidase (0.1% Triton X-100 lysis)
Protocol: as §1, §2

INWKGIAAMAKKLL-NH2 [Mastoparan-X(V)] was tested, and the EC50 ([1]; pH 7.4) was 78.8 ± 15 µM.
Molecule “INWLKLGKAVSDAL-NH2 [Protopolybia-MP III-2]” has an EC50 [1] of 193 ± 28.8 µM.
Molecule FDLLGLVKKVASAL-NH2 [EpVP2a] has an EC50 ([1]; pH 7.4) of 31.6 ± 4.31 µM.
INLKAIAALAKKLF-NH2 [Mastoparan-AF] gave an EC50 ([1]; pH 7.4) of 18.1 ± 3.94 µM.
In the case of LNLKGLFKKVASLLT-OH [Eumenitin-F], the “degranulation of RBL-2H3 / mast cells, in words” value ([1]; RBL-2H3 cells) is reported as “hardly induced mast cell degranulation”, the “Degranulation at 80 μg/mL, RBL-2H3” value ([1]; RBL-2H3 cells) is reported as 2% and the “EC50 (μg/mL), RBL-2H3” value ([1]; pH 7.4) is reported as >300 µg/mL. For the same molecule, the “Degranulation at 80 μg/mL, P815” value [2] was <20%.
“INWLKLGKAVSDIL-NH2 [Protopolybia-MP III-9]” gave an EC50 [1] of 49.6 ± 1.73 µM.
For INWKAILQRIKKML-NH2 [Agelaia-MPII], the EC50 ([1]; pH 7.4) was 34.7 ± 9.03 µM.
In the case of GRILSFIKGLAEHL-NH2 [EMP-OD], the “Degranulation at 80 μg/mL, RBL-2H3” value ([1]; RBL-2H3 cells) is reported as 4%, the EC50 ([1]; pH 7.4) is reported as > 200 µM and the “EC50 (μg/mL), RBL-2H3” value ([1]; pH 7.4) is reported as >300 µg/mL. The “Degranulation at 80 μg/mL, P815” value [2] was <20%.
Molecule INWLKLGKAIIDAL-NH2 [Agelaia-MPI] has an EC50 ([1]; pH 7.4) of 5.25 ± 0.87 µM.
For INWHDIAIKNIDAL-NH2 [Polybia-MPV], the “Degranulation at 80 μg/mL, RBL-2H3” value ([1]; RBL-2H3 cells) was 1%, the EC50 ([1]; pH 7.4) was > 200 µM and the “EC50 (μg/mL), RBL-2H3” value ([1]; pH 7.4) was >300 µg/mL. The “Degranulation at 80 μg/mL, P815” value [2] was <20%.
For INWKAIIEAAKQAL-NH2 [Protopolybia-MPII], the EC50 ([1]; pH 7.4) was 77.9 ± 9.08 µM.
Work on IDWLKLGKMVMDVL-NH2 [Polybia-MPIII] yielded an EC50 ([1]; pH 7.4) of 114 ± 59.3 µM.
“INWLKLGKAVSAAL-NH2 [Protopolybia-MP III-8]” gave an EC50 [1] of 140 ± 7.06 µM.
For “INWKGIAAMKKLL-NH2 [Mastoparan-like peptide 12b]”, the “Degranulation at 80 μg/mL, RBL-2H3” value ([1]; RBL-2H3 cells) was 11%, the EC50 ([1]; pH 7.4) was > 200 µM and the “EC50 (μg/mL), RBL-2H3” value ([1]; pH 7.4) was >300 µg/mL. For the same molecule, the “Degranulation at 80 μg/mL, P815” value [2] was <20%.
INWKKIFQKVKNLV-NH2 [PDD-A] showed an EC50 ([1]; pH 7.4) of 65.8 ± 19.5 µM.
For “INWLKLGKAVIDIL-NH2 [Protopolybia-MP III-4]”, the EC50 [1] was 28.1 ± 3.71 µM.
INLKVFAALVKKFL-NH2 [Mastoparan-T1] showed an EC50 ([1]; pH 7.4) of 32.1 ± 10 µM.
For INLLKIAKGIIKSL-NH2 [EMP-AF], the EC50 ([1]; pH 7.4) was 76.9 ± 19.6 µM.
Work on VDWKKIGQHILSVL-NH2 [Mastoparan-J] yielded an EC50 ([1]; pH 7.4) of 37.3 ± 5.13 µM.
For IDWKKLLDAAKQIL-NH2 [Polybia-MPI], the EC50 ([1]; pH 7.4) was 23.2 ± 2.09 µM.
LKLMGIVKKVLGAL-NH2 [MP-EM1] was tested, and the EC50 ([1]; pH 7.4) was 197 ± 164 µM.
With LKLLGIVKKVLGAI-NH2 [EMP-EM2] the EC50 ([1]; pH 7.4) was 72.8 ± 19.8 µM.
For INLKVFAALVKKLL-NH2 [Mastoparan-T2], the EC50 ([1]; pH 7.4) was 24.2 ± 7.89 µM.
Work on INWLKLGKAVIDAL-NH2 [Protopolybia-MPIII] yielded an EC50 [1] of 21.7 ± 3.44 µM and an EC50 ([1]; pH 7.4) of 22.5 ± 2.96 µM.
Work on INWKKIASIGKEVLKAL-NH2 [PMM2] yielded an EC50 ([1]; pH 7.4) of 36.6 ± 4.61 µM.
INWLKLGKMVIDAL-NH2 [Polybia-MPII] showed an EC50 ([1]; pH 7.4) of 6.79 ± 0.4 µM.
Work on INWKKIKSLIKAAMS-NH2 [MP-V2] yielded an EC50 ([1]; pH 7.4) of 88.9 ± 61.3 µM.
For “INWLKLGKKVIAAL-NH2 [Protopolybia-MP III-6]”, the EC50 [1] was 69.1 ± 12.3 µM.
Work on “INWLKLGKKVSDIL-NH2 [Protopolybia-MP III-13]” yielded an EC50 [1] of 145 ± 24.4 µM.
For `CC[C@H](C)[C@H](NC(=O)[C@H](CC(=O)O)NC(=O)[C@@H](N)Cc1ccccc1)C(=O)N[C@@H](CCSC)C(=O)NCC(=O)N[C@@H](CC(C)C)C(=O)N[C@H](C(=O)N[C@@H](CCCCN)C(=O)N[C@@H](CCCCN)C(=O)N[C@H](C(=O)N[C@@H](C)C(=O)NCC(=O)N[C@@H](C)C(=O)N[C@@H](CC(C)C)C(N)=O)C(C)C)[C@@H](C)CC` [EMP-ER], the EC50 ([1]; pH 7.4) was 76.2 ± 5.81 µM.
“INWLKLGKKVSDAL-NH2 [Protopolybia-MP III-5]” was tested, and the EC50 [1] was > 325 µM, the “EC50 (μg/mL), Protopolybia-MPIII and mutations” value [1] was >500 µg/mL and the “degranulation activity of mutant compared with Protopolybia-MPIII, in words” value ([1]; mutants of Protopolybia-MPIII, Table 3) was “almost lost”.
Work on INWLKLGKKVSAIL-NH2 [Protopolybia-MPI] yielded an EC50 ([1]; pH 7.4) of 117 ± 38.3 µM.
In the case of “INWLKLGKKVIDIL-NH2 [Protopolybia-MP III-7]”, the EC50 [1] is reported as 25.2 ± 1.56 µM.
